Assay results taken from publication PMC10174255, “Drug repurposing approach against chikungunya virus: an in vitro and in silico study” (Frontiers in Cellular and Infection Microbiology, 2023).
Where “and” joins values, the source holds several entries; their conditions need not be identical. Identical values can stand only once.

How the values were obtained:
[1] = tested on: CHIKV; assay: Western blot of viral capsid (C) protein; format: cell-based, Chikungunya virus; details: posttreatment, maximal non-toxic concentration, normalized to β-actin
Description: To investigate the expression of viral proteins, a western blotting assay was performed. […] The cell cultures were subjected to different types of treatment with various concentrations of the appropriate drugs. Cells were lysed using the RIPA buffer and 2X laemmli buffer at 1:1 ratio. The cell culture lysates from uninfected, infected without treatment and infected treated cells were subjected to an electrophoretic run on 10% discontinuous SDS polyacrylamide gels followed by electroblotting onto nitrocellulose membranes. The membranes were then blocked for 30 minutes using phosphate-buffered saline (PBS) containing 5% bovine serum albumin. […] This monoclonal antibody is known to react with the capsid protein of CHIKV and was characterized and purified as described earlier ([Damle et al., 2016]). The membranes were thoroughly rinsed with tris-buffered saline with 0.1% Tween 20 (TBST) after overnight incubation (5 washes totaling a 20-minute soak with rocking), and then they were incubated with the appropriate horseradish peroxidase (HRP) conjugated anti-mouse IgG antibody for two hours while rocking. For developing the blot, ECL substrate (Thermo Scientific) was used in the dark. The image of the blot was captured using the Gel Documentation system (BioRad™, USA), and analysis was done. To quantify the protein signals (density) of the viral protein and housekeeping protein in each lane, ImageJ software was used. After calculating the signal values for each band, the background signals were subtracted from the signal. The relative level of viral protein was normalized to beta-actin (monoclonal antibody 15G5A11/E2, catalog no:MA1-140, Invitrogen, USA). Signal densities were determined using ImageJ software and were plotted using GraphPad Prism software version 7.

[2] = MTT cytotoxicity assay; details: African green monkey
[3] = tested on: Vero CCL-81 cells; assay: MTT cytotoxicity assay; details: for The maximum nontoxic concentration used for primary screening of drugs against CHIKV: Vero CCL-81, ≥90% cell viability
[4] = tested on: CHIKV; assay: Viral RNA copy number by quantitative RT-PCR
[5] = tested on: CHIKV; assay: Immunofluorescence assay (percent infected cells); details: posttreatment, IFA, compared to VC
[6] = tested on: CHIKV; assay: Antiviral assay (pre-, co-, posttreatment) with FFU readout; details: for anti chikungunya activity: Vero CCL-81, any treatment condition; for IC50 / anti-CHIKV activity in primary screening: FFU; for IC50: Vero CCL-81; for anti-CHIKV activity in primary screening: highest nontoxic concentration
[7] = tested on: CHIKV; assay: Time-of-addition assay (extra- and intracellular virus, FFU); details: for effectiveness at time points of addition: added 0, 3 and 6 h post infection; for reduction in extracellular virus titer compared to VC / reduction in intracellular virus titer compared to VC: 50 µM
[8] = posttreatment, 6.25 µM, VC 8.870
[9] = posttreatment, 12.5 µM, VC 8.870

Nc1nc(F)nc2nc[nH]c12 [2-Fluoroadenine]
viral antigen (C protein) expression [1]: significant reduction
CC50 [2]: 437 ± 320 µM
The maximum nontoxic concentration used for primary screening of drugs against CHIKV [3]: 100 µM
effect on viral RNA copy number ([4]; pretreatment, 100 µM): significant reduction
reduction in percentage of infected cells [5]: prominently observed
anti chikungunya activity [6]: exhibit anti chikungunya activity
mean log10 viral titer/ml ([6]; posttreatment, 50 µM, VC 8.870): 7.686 log10 FFU/ml
IC50 ([6]; posttreatment): 7.59 µM
anti-CHIKV activity in primary screening ([6]; posttreatment): effective
Selectivity Index (SI) ([6]; pretreatment): 45.56
mean log10 viral titer/ml ([6]; pretreatment, 50 µM, VC 8.665): 7.284 log10 FFU/ml
mean log10 viral titer/ml ([6]; pretreatment, 100 µM, VC 8.665): 7.185 log10 FFU/ml
IC50 ([6]; pretreatment): 9.59 µM
anti-CHIKV activity in primary screening ([6]; pretreatment): effective
reduction in intra- and extracellular virus titer ([7]; 100 µM, time of addition 0, 3, 6 h): ~ 1 log10
reduction in intra- and extracellular virus titers ([7]; 25 and 50 µM): Mild reduction
effectiveness at time points of addition [7]: effective at all three time points

CC(C)Cn1c(=O)n(C)c(=O)c2[nH]cnc21 [3-isobutyl 1-methylxanthine]
CC50 [2]: 177 ± 21.7 µM
The maximum nontoxic concentration used for primary screening of drugs against CHIKV [3]: 50 µM

C[C@@]12CCC[C@H]1[C@@H]1CC[C@H]3C[C@@H](O)CC[C@]3(C)[C@H]1CC2 [5-α-3-β-androstanol]
The maximum nontoxic concentration used for primary screening of drugs against CHIKV [3]: 12.5 µM
CC50 ([3]; read-out: CC50 value ± SE, Vero CCL-81, MTT, 0.78-200 µM): 23.5 ± 0.856 µM

COc1cccc2c1C(=O)c1c(O)c3c(c(O)c1C2=O)C[C@@](O)(C(=O)CO)C[C@@H]3O[C@H]1C[C@H](N)[C@H](O)[C@H](C)O1 [Doxorubicin]
viral antigen (C protein) expression [1]: significant reduction
CC50 [2]: 117 ± 8.25 µM
The maximum nontoxic concentration used for primary screening of drugs against CHIKV [3]: 25 µM
effect on viral RNA copy number/titre ([4]; posttreatment): no decrease
effect on viral RNA copy number/titre ([4]; pretreatment): no decrease
reduction in percentage of infected cells [5]: prominently observed
anti chikungunya activity [6]: exhibit anti chikungunya activity
Selectivity Index (SI) ([6]; posttreatment): 18.24
mean log10 viral titer/ml [6, 8]: 7.758 log10 FFU/ml
mean log10 viral titer/ml [6, 9]: 7.509 log10 FFU/ml
mean log10 viral titer/ml ([6]; posttreatment, 25 µM, VC 8.870): 7.376 log10 FFU/ml
IC50 ([6]; posttreatment): 6.41 µM
anti-CHIKV activity in primary screening ([6]; posttreatment): effective
Selectivity Index (SI) ([6]; pretreatment): 16.95
mean log10 viral titer/ml ([6]; pretreatment, 12.5 µM, VC 8.665): 7.460 log10 FFU/ml
mean log10 viral titer/ml ([6]; pretreatment, 25 µM, VC 8.665): 7.333 log10 FFU/ml
IC50 ([6]; pretreatment): 6.9 µM
anti-CHIKV activity in primary screening ([6]; pretreatment): effective
effect on intra- and extracellular virus particles ([7]; 25 µM, added at 0, 3 and 6 h): exerted reduction
reduction in intracellular virus titer ([7]; 12.5 and 6.25 µM): not as prominent as extracellular virus titer

COc1cc2c(cc1Cc1cccc(Cl)c1F)c(=O)c(C(=O)O)cn2[C@H](CO)C(C)C [Elvitegravir]
CC50 [2]: 12.7 ± 1.52 µM
The maximum nontoxic concentration used for primary screening of drugs against CHIKV [3]: 6.25 µM

CC[C@H]1CN2CCc3cc(OC)c(OC)cc3[C@@H]2C[C@@H]1C[C@H]1NCCc2cc(OC)c(OC)cc21 [Emetine]
CC50 [2]: > 200 µM
The maximum nontoxic concentration used for primary screening of drugs against CHIKV [3]: 200 µM
effect on viral RNA copy number/titre ([4]; posttreatment): No significant reduction
anti chikungunya activity [6]: exhibit anti chikungunya activity
mean log10 viral titer/ml ([6]; posttreatment, 50 µM, VC 8.870): 7.802 log10 FFU/ml
mean log10 viral titer/ml ([6]; posttreatment, 100 µM, VC 8.870): 7.550 log10 FFU/ml
mean log10 viral titer/ml ([6]; posttreatment, 200 µM, VC 8.870): 7.306 log10 FFU/ml
IC50 ([6]; posttreatment): 4.24 µM
anti-CHIKV activity in primary screening ([6]; posttreatment): effective
effect on intra- and extracellular virus titre ([7]; 200 µM, added at 6 h): significant reduction
effect on intra- and extracellular virus titer ([7]; 50-200 µM, added at 0 and 3 h): significantly reduced

O=C(O)Cc1ccc(-c2ccccc2)cc1 [Felbinac]
CC50 [2]: 525 ± 200 µM
The maximum nontoxic concentration used for primary screening of drugs against CHIKV [3]: 3.125 µM
effect on viral RNA copy number/titre ([4]; pretreatment): did not have any effect
anti chikungunya activity [6]: exhibit anti chikungunya activity
Selectivity Index (SI) ([6]; pretreatment): 2205.88
mean log10 viral titer/ml ([6]; pretreatment, 1.56 µM, VC 8.665): 7.175 log10 FFU/ml
mean log10 viral titer/ml ([6]; pretreatment, 3.125 µM, VC 8.665): 7.040 log10 FFU/ml
IC50 ([6]; pretreatment): 0.238 µM
anti-CHIKV activity in primary screening ([6]; pretreatment): effective

Nc1cccc2c1CN(C1CCC(=O)NC1=O)C2=O (centres unmarked) [Lenalidomide]
The maximum nontoxic concentration used for primary screening of drugs against CHIKV [3]: 200 µM

CC(C)(C)C#Cc1cc(N(C(=O)[C@H]2CC[C@H](C)CC2)[C@H]2CC[C@H](O)CC2)c(C(=O)O)s1 [Lomibuvir]
CC50 [2]: 31.5 ± 9.63 µM
The maximum nontoxic concentration used for primary screening of drugs against CHIKV [3]: 6.25 µM
effect on viral RNA copy number/titre ([4]; posttreatment): no change observed
anti chikungunya activity [6]: exhibit anti chikungunya activity
Selectivity Index (SI) ([6]; posttreatment): 19.83
mean log10 viral titer/ml [6, 8]: 7.655 log10 FFU/ml
IC50 ([6]; posttreatment): 1.59 µM
anti-CHIKV activity in primary screening ([6]; posttreatment): effective
effect on virus titer ([7]; 3.125 µM, added at 3 and 6 h): small but significant reduction
effect on intra- and extracellular virus titer ([7]; 6.25 µM, added at 0, 3 and 6 h): significantly reduced

Cc1ccc(NC(=O)c2ccc(CN3CCN(C)CC3)cc2)cc1Nc1nc(-c2cccnc2)cs1 [Masitinib]
cytotoxicity ([3]; Vero CCL-81, even at lowest concentrations): highly toxic

CC(C)(C(=O)c1cccnc1)c1cccnc1 [Metyrapone]
CC50 [2]: 5600 ± 6100 µM
The maximum nontoxic concentration used for primary screening of drugs against CHIKV [3]: 200 µM
log10 viral RNA copy number ([4]; pretreatment, 200 µM, VC 9.670): 8.984
anti chikungunya activity [6]: exhibit anti chikungunya activity
Selectivity Index (SI) ([6]; pretreatment): 457.80
mean log10 viral titer/ml ([6]; pretreatment, 100 µM, VC 8.665): 7.136 log10 FFU/ml
mean log10 viral titer/ml ([6]; pretreatment, 200 µM, VC 8.665): 7.115 log10 FFU/ml
IC50 ([6]; pretreatment): 12.2 µM
anti-CHIKV activity in primary screening ([6]; pretreatment): effective

Cc1nc2c(O)cccc2c(=O)[nH]1 [NU-1025]
The maximum nontoxic concentration used for primary screening of drugs against CHIKV [3]: 100 µM

Oc1ccc(/C=C/c2cc(O)cc(O)c2)cc1 [Resveratrol]
CC50 [2]: 40.9 ± 4.57 µM
The maximum nontoxic concentration used for primary screening of drugs against CHIKV [3]: 12.5 µM
effect on viral RNA copy number/titre ([4]; posttreatment): No reduction
reduction in percentage of infected cells [5]: prominently observed
anti chikungunya activity [6]: exhibit anti chikungunya activity
Selectivity Index (SI) ([6]; posttreatment): 23.74
mean log10 viral titer/ml [6, 8]: 8.261 log10 FFU/ml
mean log10 viral titer/ml [6, 9]: 7.486 log10 FFU/ml
IC50 ([6]; posttreatment): 1.72 µM
anti-CHIKV activity in primary screening ([6]; posttreatment): effective
effect on extracellular titer of virus ([7]; 6.25 µM, added at 3 and 6 h): mild but significant reduction
effect on intra- and extracellular virus titer ([7]; 12.5 µM, added at 0, 3 and 6 h): significant decrease

CO[C@H]1C[C@@H]2CC[C@@H](C)[C@@](O)(O2)C(=O)C(=O)N2CCCC[C@H]2C(=O)O[C@H]([C@H](C)C[C@@H]2CC[C@@H](OC(=O)C(C)(CO)CO)[C@H](OC)C2)CC(=O)[C@H](C)/C=C(\C)[C@@H](O)[C@@H](OC)C(=O)[C@H](C)C[C@H](C)/C=C/C=C/C=C/1C [Temsirolimus]
viral antigen (C protein) expression [1]: significant reduction
CC50 [2]: 413 ± 378 µM
The maximum nontoxic concentration used for primary screening of drugs against CHIKV [3]: 50 µM
decrease in RNA copy number of CHIKV compared to VC ([4]; posttreatment, 50 µM): 2.487 log10
decrease in viral RNA copy number compared to VC ([4]; pretreatment, 50 µM): 0.809 log10
reduction in percentage of infected cells [5]: prominently observed
anti chikungunya activity [6]: exhibit anti chikungunya activity
reduction of CHIKV titre compared to VC ([6]; discussion summary): 4-5 log10
Selectivity Index (SI) ([6]; posttreatment): 68.41
mean log10 viral titer/ml ([6]; posttreatment, 25 µM, VC 8.870): 7.903 log10 FFU/ml
mean log10 viral titer/ml ([6]; posttreatment, 50 µM, VC 8.870): 3.678 log10 FFU/ml
IC50 ([6]; posttreatment): 6.04 µM
anti-CHIKV activity in primary screening ([6]; posttreatment): effective
Selectivity Index (SI) ([6]; pretreatment): 85.1 and 85.11
mean log10 viral titer/ml ([6]; pretreatment, 25 µM, VC 8.665): 7.279 log10 FFU/ml
IC50 ([6]; pretreatment): 4.86 µM
anti-CHIKV activity in primary screening ([6]; pretreatment): effective
reduction in extracellular virus titer compared to VC ([7]; added at 0 h and 3 h): ~ 4 log10
reduction in intracellular virus titer compared to VC ([7]; added at 0 h and 3 h): ~ 3 log10
reduction in extracellular virus titer compared to VC ([7]; added at 6 h): ~ 3 log10
reduction in intracellular virus titer compared to VC ([7]; added at 6 h): ~ 2 log10
effectiveness at time points of addition [7]: effective at all the three time points
